According to publication PMC11077972, “Optimization of the antifungal properties of the bacterial peptide EntV by variant analysis” (mBio, 2024):
Where a SMILES comes first, the peptide text is derived from it. Bridges are numbered along the chain shown (N, C = ends). [ ]: non-standard residue; d: D form. R8 = C=CCCCCCC[C@@](C)(N)C(=O)O; S5 = C=CCCC[C@](C)(N)C(=O)O

Columns and labels:
C. albicans biofilm = C. albicans biofilm assay in artificial saliva medium (crystal violet); format: cell-based, Candida albicans; conditions: 10 nM peptide
Experimental: Briefly, C. albicans strains were grown in YPD broth for 18 hrs at 30°C with agitation and then sub-cultured for 4 hrs in the same conditions. Cells were then collected by centrifugation at 16,000 x g for 30 s, washed twice in PBS, and adjusted to a concentration of 5 × 10^6 cells/mL (measured with Countess II, Life Technologies) in PBS treated with the 10 nM peptide. The cell suspension was incubated for 1 hr at 30°C with agitation at 200 rpm. Then, 100 µL of the cell suspension was added to wells of a 96-well tissue culture-treated polystyrene plate (Falcon). The PBS and unadhered cells were removed and then replaced with 200 µL of the artificial saliva medium ([15], [60]) containing the 10 nM peptide. The plate was then incubated at 37°C for 48 h.
After incubation, the medium was gently removed along with any planktonic cells. The biofilm was then stained for 20 min with 50 µL of 0.08% crystal violet solution (Sigma). The crystal violet stain was then aspirated, and the wells were washed four times with sterile water. Biofilms were de-stained with 200 µL of 200 proof ethanol for 20 min, and 100 µL of the ethanol solution was transferred to a new well for analysis.

C. albicans = test: C. elegans survival assay after infection with C. albicans; format: in vivo, Candida albicans; conditions: 1 nM peptide; for Median survival: C. albicans infected C. elegans, 25°C, experiment with 12aa (i+7 staple)
Experimental: C. elegans infection assays were performed with strain glp-4(bn2);sek-1(km-4) ([40]), which were propagated and maintained on E. coli strain OP50 grown as lawns on nematode growth medium (NGM) agar using standard techniques ([58]). To synchronize the nematodes to the same stage of growth, L1 stage worms on non-starved plates were washed off, filtered through a 10- µm filter (pluriSelect, pluriStrainer 10 µm), harvested by centrifugation at 1,500 rpm for 60 seconds, transferred to OP50-seeded plates, and grown to the L4 stage.
To prepare the infection plates, fungal strains were grown in BHI broth overnight at 30°C with agitation. About 500 µL of the culture was plated onto BHI solid medium containing gentamycin (10 µg/mL) and grown for 24 hrs at 37°C. The synchronized L4 C. elegans nematodes were then washed off the OP50 plates in 2 mL sterile M9 buffer and washed once, centrifuging at 800 rpm for 30 seconds to collect the nematodes. Nematodes were infected by placing them on the fungal lawn for 4 hrs at 25°C. Following this exposure, they were washed off the plate and washed four times with 2 mL of sterile M9. The nematodes were then pipetted (~30 per well with two wells per condition for a total of ~60 worms assayed) into six-well plates with 2 mL of the liquid medium (20% BHI broth and 80% M9) containing 1 nM of the peptide. A DMSO-untreated control was used with each experiment. Plates were incubated at 25°C, and worm death was scored daily. Kaplan–Meier survival curves were generated and analyzed, as described in the quantification and statistical analysis section.

CC(C)C[C@@H]1NC(=O)[C@H](C)NC(=O)[C@H](CC(C)C)NC(=O)[C@H](CCC(N)=O)NC(=O)CNC(=O)[C@@](C)(NC(=O)[C@@H](N)C(C)C)CCC/C=C\CCCCCC[C@](C)(C(=O)N[C@H](C(=O)N[C@@H](CCC(N)=O)C(=O)N[C@@H](CS)C(N)=O)C(C)C)NC(=O)[C@H](Cc2c[nH]c3ccccc23)NC1=O [12aa (i+7 staple)] (H-V[S5]GQLALW[R8]VQC-NH2; staple (Z) 2-9)
Antifungal activity in biofilm assay (C. albicans biofilm): fully active | Protection of C. elegans from C. albicans infection relative to parent peptide (C. albicans; survival curves, Mantel–Cox log rank): remained as effective as the original | Median survival (C. albicans; trial 1): 12 days | Median survival (C. albicans; trial 2): 11.5 days
